Where two headings read alike, the source gives them in different places.
What was measured:
nicotinic receptors Rα7 = nicotinic receptors Rα7 (Rattus norvegicus, UniProt Q05941); test: biochemical; format: binding
[1] = Solubility (solvents listed in table); conditions: solvents in which the compound is soluble, in words
[2] = rat frontal cortex membranes, [125I]α-bungarotoxin 2 nM, 22° C., 3 hours, Ki calculated from IC50 (Cheng and Prussof), read-out: Activity on Rα7

nicotinic receptors Rα7, sequence (Q05941 23-502): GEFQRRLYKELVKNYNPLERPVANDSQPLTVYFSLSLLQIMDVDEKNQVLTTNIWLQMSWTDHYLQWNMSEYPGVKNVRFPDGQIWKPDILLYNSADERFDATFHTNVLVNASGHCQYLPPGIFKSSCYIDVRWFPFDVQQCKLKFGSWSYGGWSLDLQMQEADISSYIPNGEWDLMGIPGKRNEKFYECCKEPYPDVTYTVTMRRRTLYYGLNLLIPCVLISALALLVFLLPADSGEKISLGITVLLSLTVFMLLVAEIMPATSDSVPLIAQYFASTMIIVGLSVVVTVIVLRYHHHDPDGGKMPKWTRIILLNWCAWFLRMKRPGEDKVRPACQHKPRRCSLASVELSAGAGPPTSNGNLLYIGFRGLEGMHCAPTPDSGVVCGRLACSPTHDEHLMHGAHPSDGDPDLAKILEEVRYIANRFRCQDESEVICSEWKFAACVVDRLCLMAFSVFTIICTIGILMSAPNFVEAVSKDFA

Row | Compound | melting point | Ki (nicotinic receptors Rα7) | Solubility [1] | Ki (nicotinic receptors Rα7; [2])
1 | CN1[C@@H]2CC[C@H]1C[C@@H](n1cc(-c3ccc(Cl)c(Cl)c3)nn1)C2 [Compound 24, Endo-3-(4-(3,4-dichlorophenyl)-1H-1,2,3-triazol-1-yl)tropane] | 136 °C | 110 ± 36 nM | M = 337.25 g/mol C16H18Cl2N4 CHCl3 − DMSO | 
2 | CN1[C@@H]2CC[C@H]1C[C@@H](n1cc(-c3ccccc3)nn1)C2 [Compound 16, Endo-3-(4-phenyl-1H-1,2,3-triazol-1-yl)tropane] | 135 °C | 168 ± 68 nM | M = 268.36 g/mol C16H20N4 CHCl3 − DMSO | 
3 | CN1[C@@H]2CC[C@H]1C[C@@H](n1cc(-c3cccc(F)c3)nn1)C2 [Compound 22, Endo-3-(4-(3-fluorophenyl)-1H-1,2,3-triazol-1-yl)tropane] | 124 °C | 16 ± 9 nM | M = 286.35 g/mol C16H19FN4 CHCl3 − DMSO | 
4 | CN1[C@@H]2CC[C@H]1C[C@@H](n1cc(-c3ccc(Br)s3)nn1)C2 [Compound 27, Endo-3-(4-(5-bromothiophen-2-yl)-1H-1,2,3-triazol-1-yl)tropane] | 138 °C | 275 ± 43 nM | M = 353.28 g/mol C14H17BrN4S CHCl3 − DMSO | 
5 | COc1ccc(-c2cn([C@H]3CN4CCC3CC4)nn2)cc1 [Compound 46, (R)-3-(4-(4-Methoxyphenyl)-1H-1,2,3-triazol-1-yl)quinuclidine] | 122 °C |  | M = 284.36 g/mol C16H20N4O DMSO | 
6 | CN1[C@@H]2CC[C@H]1C[C@@H](n1cc(-c3ccc4sccc4c3)nn1)C2 [Compound 25, Endo-3-(4-(1-Benzothiophen-5-yl)-1H-1,2,3-triazol-1-yl)tropane] | 163 °C | 14 ± 4 nM | M = 324.44 g/mol C18H20N4S CHCl3 − DMSO | 
7 | CN1[C@@H]2CC[C@H]1C[C@@H](n1cc(-c3ccc4occc4c3)nn1)C2 [Compound 26, Endo-3-(4-(1-benzofuran-5-yl)-1H-1,2,3-triazol-1-yl)topane] | 104 °C | 13 ± 5 nM | M = 308.38 g/mol C18H20N4O CHCl3 − DMSO | 
8 | OCc1cccc(-c2cccc(-c3cn([C@H]4CN5CCC4CC5)nn3)c2)c1 [Compound 99, (R)-[3-[3-[1-[quinuclidin-3-yl]-1H-1,2,3-triazol-4-yl]phenyl]phenyl]methanol] | 201 °C |  |  | 1.4 nM
9 | FC1(c2cn(-c3ccc(Br)cc3)nn2)CN2CCC1CC2 (stereo not drawn) [Compound 71, 3-Fluoro-3-(1-(4-bromophenyl)-1H-1,2,3-triazol-4-yl)quinuclidine] | 127 °C |  |  | 150 ± 10 nM
10 | COc1ccc(-c2cn([C@H]3C[C@H]4CC[C@@H](C3)N4C)nn2)cc1 [Compound 19, Endo-3-(4-(4-methoxyphenyl)-1H-1,2,3-triazol-1-yl)tropane] | 118 °C | 283 ± 76 nM | M = 298.38 g/mol C17H22N4O CHCl3 − DMSO | 
11 | OCc1cccc(-c2coc(-c3cn([C@H]4CN5CCC4CC5)nn3)c2)c1 [Compound 92, (R)-[3-[5-[1-[quinuclidin-3-yl]-1H-1,2,3-triazol-4-yl]-3-furyl]phenyl]methanol] | 212 °C | 115 nM |  | 
12 | c1cc(-c2ccc(-c3cn([C@H]4CN5CCC4CC5)nn3)s2)ccc1CN1CCOCC1 [Compound 102] | 222 °C |  |  | 0.9 nM
13 | OCc1ccc(-c2coc(-c3cn([C@H]4CN5CCC4CC5)nn3)c2)cc1 [Compound 90, (R)-[4-[5-[1-[quinuclidin-3-yl]-1H-1,2,3-triazol-4-yl]-3-furyl]phenyl]methanol] | 202 °C | 9 nM |  | 
14 | c1cc2cc(-c3cn([C@H]4CN5CCC4CC5)nn3)ccc2s1 [Compound 55, (R)-3-(4 Benzo[b](thiophen-5-yl)-1H-1,2,3-triazol-1-yl) quinuclidine] | 178 °C |  |  | 19 ± 1 nM
15 | CN1CCN(Cc2ccc(-c3ccc(-c4cn([C@H]5CN6CCC5CC6)nn4)s3)cc2)CC1 [Compound 104, (R)-3-[4-[5-[4-[(4-methylpiperazin-1-yl)methyl]phenyl]-2-thienyl]-1H-1,2,3-triazol-1-yl]quinuclidine] | 214 °C |  |  | 0.3 nM
16 | OCc1ccc(-c2ccc(-c3cn([C@H]4CN5CCC4CC5)nn3)cc2)cc1 [Compound 93, (R)-[4-[4-[1-[quinuclidin-3-yl]-1H-1,2,3-triazol-4-yl]phenyl]phenyl]methanol] | 250 °C | 137 nM |  | 
17 | Fc1ccc(-c2cn([C@H]3CN4CCC3CC4)nn2)cc1F [Compound 45, (R)-3-(4-(3,4-difluorophenyl)-1H-1,2,3-triazol-1-yl) quinuclidine] | 122 °C |  |  | 10 ± 4 nM
18 | c1csc(-c2cn([C@H]3CN4CCC3CC4)nn2)c1 [Compound 53, (R)-3-(4-(Thiophen-2-yl)-1H-1,2,3-triazol-1-yl)quinuclidine] | 137 °C |  |  | 9.5 ± 3 nM
19 | Fc1cccc(-c2cn([C@H]3CN4CCC3CC4)nn2)c1 [Compound 43, (R)-3-(4-(3-Fluorophenyl)-1H-1,2,3-triazol-1-yl)quinuclidine] | 120 °C |  |  | 10 ± 1 nM
20 | COc1ccc(-c2cn([C@H]3CN4CCC3CC4)nn2)cn1 [Compound 52, (R)-3-(4-(6-Methoxypyridin-3-yl)-1H-1,2,3-triazol-1-yl)quinuclidine] | 155 °C |  |  | 105 ± 29 nM
21 | Clc1ccc(-c2cn([C@H]3CN4CCC3CC4)nn2)cc1 [Compound 39, (R)-3-(4-(4-Chlorophenyl)-1H-1,2,3-triazol-1-yl)quinuclidine] | 144 °C |  |  | 8 ± 3 nM
22 | COc1ccc2cc(-c3cn([C@H]4CN5CCC4CC5)nn3)ccc2c1 [Compound 49, (R)-3-(4-(6-Methoxynaphthalen-2-yl)-1H-1,2,3-triazol-1-yl)quinuclidine] | 186 °C |  |  | 196 ± 21 nM
23 | CN1[C@@H]2CC[C@H]1C[C@@H](n1cc(-c3ccc(F)cc3)nn1)C2 [Compound 17, Endo-3(4-(4-fluorophenyl)-1H-1,2,3-triazol-1-yl)tropane] | 254 °C | 210 ± 31 nM | M = 286.35 g/mol C16H19FN4 CHCl3 − DMSO | 
24 | COC(=O)c1ccc(-c2ccc(-c3cn([C@H]4CN5CCC4CC5)nn3)s2)cc1F [Compound 105, Methyl-2-fluoro-4-[5-[1-[(3R)-quinuclidin-3-yl]-1H-1,2,3-triazol-4-yl]-2-thienyl]benzoate] | 250 °C | 85 nM |  | 
25 | Brc1cccc(-c2cn([C@H]3CN4CCC3CC4)nn2)c1 [Compound 83, (R)-3-[4-(3-bromophenyl)-1H-1,2,3-triazol-1-yl]quinuclidine] | 188 °C | 11 nM |  | 
26 | OCc1cccc(-c2ccc(-c3cn([C@H]4CN5CCC4CC5)nn3)cc2)c1 [Compound 95, (R)-[3-[4-[1-[quinuclidin-3-yl]-1H-1,2,3-triazol-4-yl]phenyl]phenyl]methanol] | 207 °C |  |  | 100 nM
